Test results as given in patent US6201015A, “Therapeutic method for thrombocytopathy treatment” (priority 1996, dated 2001).
Where two headings read alike, the source gives them in different places.

What was measured:
[1] = test system: platelets (platelet rich plasma); experiment: Action on Platelet Aggregation (3): ADP-induced platelet aggregation in the presence of SQ-29548; type: cell-based, human (healthy subject); details: concentration within the range of 0.1 to 10 μM, Control 38 ± 4.9, *P<0.05 paired t-test
Description: A blood specimen taken from a healthy subject was centrifuged to thereby separate platelet rich plasma (PRP) and platelet poor plasma (PPP). To PRP was added SQ-29548, a TXA2 antagonist, and 1 minute after, platelet aggregation was induced by ADP, and immediately after induction, any of Compounds 2 to 4 having the following structural formulae was added to PRP. The experiment was performed on one group comprising three subjects. The results are set forth in Table 6 (*: P<0.05, Paired t-test).
Compound 2 to 4 were respectively used at a concentration within the range of 0.1 to 10 μM.

[2] = background; cited from earlier work
[3] = test system: platelets; details: background; cited from earlier work
[4] = cited from earlier work
[5] = cited from earlier work; remark: listed apart in the source
[6] = test system: platelets (platelet rich plasma); experiment: Antagonistic Action on Inhibition of Platelet Aggregation (ADP-induced, SQ-29548 present, BPS or PGD2 as inhibitor); type: cell-based, human (healthy subject); details: for IC50: Homo sapiens, Platelet, ADP-induced aggregation, SQ-29548
Description: A blood specimen sampled from a healthy subject was centrifuged to thereby separate platelet rich plasma (PRP) and platelet poor plasma (PPP). To the PRP was added SQ-29548, a TXA2 antagonist, and then Compound 1 was added one minute after, beraprost sodium (BPS), a prostacyclin derivative, or prostaglandin D2 (PGD2) was added to the PRP, and 1 minute thereafter, aggregation was induced by ADP. The 50% inhibitory concentration (IC50) of BPS or PGD2 was then calculated from the results. The experiment was performed on one group composed of three specimens. The results are set forth in Tables 3 and 4 (*: P<0.05, Paired t-test).

[7] = test system: platelets (platelet rich plasma); experiment: Action on Platelet Aggregation (1): aggregation induction in PRP in the presence of SQ-29548; type: cell-based, human (healthy subject); details: for Number of Aggregation Induction: PRP with SQ-29548, three samples
Description: A blood specimen sampled from a healthy subject was centrifuged to thereby separate platelet rich plasma (PRP) and platelet poor plasma (PPP). The agent SQ-29548 (refer to Prostaglandins, 1985;29;785), a TXA2 antagonist, was added to PRP, and 1 minute later, a test drug having the following structure (hereinafter referred to as "Compound 1") was added thereto. The experiment was conducted on one group comprising three samples.

[8] = test system: platelets (platelet rich plasma); experiment: Action on Platelet Aggregation (2): ADP-induced platelet aggregation in the presence of SQ-29548; type: cell-based, human (healthy subject)
Description: A blood specimen sampled from a healthy subject was centrifuged to thereby separate platelet rich plasma (PRP) and platelet poor plasma (PPP). SQ-29548, a TXA2 antagonist, was added to PRP, and 1 minute later, platelet aggregation was induced by ADP, and immediately after induction, Compound 1 was added thereto. The experiment was carried out on one group comprising three samples. The test results are shown in Table 2 (*: P<0.05, Paired t-test).

[9] = test system: cAMP in the platelets; experiment: cAMP concentration in platelets stimulated with BPS (EIA kit); type: cell-based, human (healthy subject); details: for cyclic AMP (× basal level): SQ-29548, five cases
Description: A blood specimen taken from a healthy subject was centrifuged to thereby separate platelet rich plasma (PRP). To PRP was added SQ-29548, a TXA2 antagonist, and then Compound 1 was added thereto. After 1 minute, BPS (100 nM) was added to PRP, and then the reaction was stopped by 5% TCA. Thereafter, cAMP in the platelets was extracted and the cAMP concentration was determined with an EIA kit (BIOTRAK cAMP EIA SYSTEM, Amersham). The experiment was carried out on one group composed of five cases. The results are shown in Table 5 (*: P<0.05, Paired t-test).

In the case of CCCCC(C)(C)[C@H](O)/C=C/[C@@H]1[C@H]2c3cccc(CCC(=O)O)c3O[C@H]2C[C@H]1O (relative stereo) [Compound 2], the “Platelet Aggregation Rate” value [1] is reported as 45 ± 6.1%.
In the case of O=C(O)CCc1cccc2c1OC1CC(O)C(C=CC(O)COc3ccccc3)C21 (centres unmarked) [Compound 3], the “Platelet Aggregation Rate” value [1] is reported as 43 ± 5.3%.
For NC(=O)CC[C@@H]1NC(=O)[C@H](Cc2ccccc2)NC(=O)[C@H](Cc2ccc(O)cc2)NC(=O)CCSSC[C@@H](C(=O)N2CCC[C@H]2C(=O)N[C@H](CCCN=C(N)N)C(=O)NCC(N)=O)NC(=O)[C@H](CC(N)=O)NC1=O [DDAVP, 1-diamino 8-D-arginine vasopressin], the “adverse drug reactions (in words)” value [2] is given as “may induce arterial thrombosis and/or hyponatremia”.
For CCCCC[C@H](O)/C=C/[C@@H]1[C@H]2C/C(=C/CCCC(=O)O)O[C@H]2C[C@H]1O [PGI2, prostaglandin I2], the “known activity (in words)” value [3] is listed as “strong antiplatelet activity and telangiectatic activity”, the “stability in neutral aqueous solution (in words)” value [4] is listed as “extremely unstable even in a neutral aqueous solution” and the “stability and duration of activity in vivo (in words)” value [5] is listed as “unstable in vivo and its activity is not long-lasting”.
With CCCCC[C@H](O)/C=C/[C@H]1C(=O)C[C@H](O)[C@@H]1C/C=C\CCCC(=O)O [PGD2, prostaglandin D2] the IC50 ([6]; Compound 1 0 μM, read-out: IC50 of PGD2) was 38.8 ± 2.5 nM, the IC50 ([6]; in the presence of Compound 1 0.1 μM, read-out: IC50 of PGD2) was 71.2 ± 8.2 nM and the IC50 ([6]; in the presence of Compound 1 1 μM, *P<0.05, read-out: IC50 of PGD2) was 194 ± 28 nM.
In the case of CCCCC[C@H](O)/C=C/[C@@H]1[C@@H](CC(=O)CCCCC(=O)O)[C@@H](O)C[C@H]1O [Compound 6-oxo-PGF1a, 6-oxo-PGF1a], the “known activity (in words)” value [3] is given as “almost no physiological activity”.
For CC(C)(Oc1ccccc1)[C@H](O)/C=C/[C@@H]1[C@H]2c3cccc(CCC(=O)O)c3O[C@H]2C[C@H]1O [Compound 1], the “Number of Aggregation Induction” value ([7]; Compound 1 0.1 μM) was 0, the “Number of Aggregation Induction” value ([7]; Compound 1 1 μM) was 0 and the “Number of Aggregation Induction” value ([7]; Compound 1 10 μM) was 0. For the same compound, the “induction of platelet aggregation (in words)” value ([7]; in the presence of SQ-29548, 0.1-10 μM) was “did not induce platelet aggregation”, the “Platelet Aggregation Rate” value ([8]; Compound 1 0.1 μM, without Compound 1: 52.0 ± 2.5, *P<0.05 paired t-test) was 61.3 ± 2.9% and the “Platelet Aggregation Rate” value ([8]; Compound 1 1 μM, without Compound 1: 52.0 ± 2.5, asterisk not given) was 70.0 ± 3.0%. The “effect on aggregation of platelets (in words)” value ([8]; Compound 1 0.1 and 1 μM) was “enhanced aggregation of platelets”, the “antagonism of inhibition of platelet aggregation (in words)” value ([6]; Compound 1 0.1 and 1 μM against BPS or PGD2) was “physiologically antagonized inhibitory actions of BPS and PGD2 on platelet aggregation” and the “effect on cAMP production (in words)” value ([9]; BPS 100 nM, Compound 1 0.1 and 1 μM) was “inhibited cAMP production of BPS in platelets”. The “cyclic AMP (× basal level)” value ([9]; Compound 1 0.1 μM with BPS 100 nM, *P<0.05) was 6.45 ± 1.4 × basal level and the “cyclic AMP (× basal level)” value ([9]; Compound 1 1 μM with BPS 100 nM, *P<0.05) was 3.98 ± 0.9 × basal level.
In the case of CC(C)(Oc1ccccc1)[C@H](O)/C=C/[C@@H]1[C@H]2c3cccc(CCC(=O)O)c3O[C@H]2C[C@H]1O (relative stereo) [Compound 4], the “Platelet Aggregation Rate” value [1] is reported as 54 ± 4.1%.
For CC#CCC(C)[C@H](O)/C=C/[C@@H]1[C@H]2c3cccc(CCCC(=O)O)c3O[C@H]2C[C@H]1O (mixture of isomers) [BPS, beraprost sodium], the IC50 ([6]; Compound 1 0 μM, read-out: IC50 of BPS) was 7.99 ± 1.4 nM, the IC50 ([6]; in the presence of Compound 1 0.1 μM, read-out: IC50 of BPS) was 21.1 ± 4.7 nM and the IC50 ([6]; in the presence of Compound 1 1 μM, *P<0.05, read-out: IC50 of BPS) was 36.7 ± 7.4 nM. For the same compound, the “cyclic AMP (× basal level)” value ([9]; BPS 100 nM, Compound 1 0 μM) was 8.46 ± 1.8 × basal level.
